Experimental data reported in patent US20050215548A1 (Cyclacel Limited, priority 2002, published 2005).
Read-outs that look alike come from different tables or passages of the source.

Experiments:
HDM2 [1] = target: T1, HDM2 (Homo sapiens, UniProt Q00987); conditions: literature, cited from earlier work; for affinity for HDM2 / inhibition of the p53/HDM2 complex: background
T1 construct: Recombinant HDM2 (1.5 μg per well) in TBS-BSA buffer

carcinoma cell lines = assay: 72-h MTT panel, average carcinomas; format: cell-based; conditions: Homo sapiens, read-out: Anti-proliferative activity, 72-h MTT IC50, Average carcinomas
Procedure: (§1) Representative bisarylsulfonamide compounds were tested on a panel of transformed and non-transformed human cell lines, using a standard 72-h MTT cytotoxicity assay [Haselsberger K et al, ibid].
This differential selectivity further supports the notion that the bisarylsulfonamides modulate cellular HDM2 function. It is known that HDM2 amplification is particularly common in soft tissue sarcomas and osteosarcomas [Momand J et al, ibid; Bartel F, Meye A, Wurl P, Kappler M, Bache M, Lautenschlager C, Grunbaum U, Schmidt H, Taubert H; Int. J. Cancer 2001; 95: 168-175].

H1299 = assay: Combination treatment with cisplatin or etoposide, MTT, H1299; format: cell-based, human; conditions: 72 hours
From the text: (§2) It is well established that radiotherapy and most current forms of chemotherapy cause extensive genetic damage and induction of the p53-dependent apoptotic pathway, which determines the important role of this tumor suppressor protein in cancer therapy. HDM2, on the other hand, as a transcriptional product and negative regulator pf p53, would destabilise p53 and diminish its pro-apoptotic function. Inhibitors of the p53-HDM2 negative feedback loop (e.g. compounds disrupting the p53-HDM2 complex) are expected to synergise with cytotoxic agents for induction of p53 and subsequent apoptosis. […] Both chemotherapeutic agents were used in the concentration range of 100-0.19 μM.

AGS [2] = assay: Combination treatment with cisplatin or etoposide, MTT, AGS; format: cell-based, human; conditions: MTT, 72 hours
From the text: as §2

SJSA-1 = assay: Combination treatment with cisplatin or etoposide, MTT, SJSA-1; format: cell-based, human; conditions: MTT, 72 hours
From the text: as §2

MCF7 or H1299 cells = assay: Cell cycle distribution, propidium iodide flow cytometry; format: cell-based, human; conditions: 5 times IC50
Procedure: Cells were stained with propidium iodide and the cell cycle position was determined using a flow cytometer.

[3] = test system: key proteins in the HDM2 pathway; assay: SDS-PAGE and immunoblotting of key proteins in the HDM2 pathway; format: cell-based, human; conditions: for changes in protein levels and cell morphology: negative control: MCF7, 13.5 μM, 68/69: MCF7 and H1299 at five times IC50 of 69, 49: AGS, SJSA1, H1299
From the text: Equal amounts of cell lysate were separated by SDS-PAGE and analysed by immunoblotting using the indicated antibodies. An estimation of the extent of cell rounding is indicated above each lane. […] (B) The effect of compound 2 on the levels of the cell cycle proteins in AGS cells (wild-type 53). […] Equal amounts of cell lysate were separated by SDS-PAGE and analysed by immunoblotting using the indicated antibodies. An estimation of the extent of cell rounding is indicated above each lane. (C) The effect of negative control compound (refer Example 10), compound 2, cisplatin, and anisomycin on the levels of key proteins in MCF7 cells. […] Cisplatinum and anisomycin (a transcription inhibitor) treatments were with 50 μM or 37 μM, respectively. Cells were harvested at various time points; afterwards lysates were prepared and separated by SDS-PAGE and analysed by immunoblotting. The proteins detected are indicated. The extent of rounded or floating cells and the percentage viable cells were assessed. […] Equal amounts of cell lysate were separated by SDS-PAGE and analysed by immunoblotting using a range of antibodies. An estimation of the extent of cell rounding is indicated above each lane. […] SJSA1 cells were treated with 5 times [IC50] of compound 2 and collected at the indicated time points. Equal amounts of cell lysate were separated by SDS-PAGE and analysed by immunoblotting using a range of antibodies. An estimation of the extent of cell rounding is indicated above each lane.
Many types of cellular stress converge on the p53 pathway and induce its activity. […] The biological effect of bisarylsufonamides on cellular level was studies using representative compounds (mainly compound 2) and number of cell lines with different HDM2 and p53 status. These were overexpressing Hdm2 (SJSA1—osteosarcoma), wild type p53 and normal levels of HDM2 (AGS—gastric adenocarcinoma, MCF7—breast adenocarcinoma), or p53 null, low levels of HDM2 (H1299—large cell lung carcinoma).
Cells were lysed and equal amounts were analysed by SDS-polyacrylamide gel electrophoresis (SDS-PAGE) and immunoblotting.

HDM2 [4] = target: T1, HDM2; assay: Fluorescence polarisation competitive HDM2 binding assay
In short: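 Recombinant HDM2 (1.5 μg/well) was preincubated 5 min at room temperature with serially diluted compound in 50 mM Tris pH 7.4, 150 mM NaCl, 0.1% BSA, 5% DMSO final. Fluorescein-labelled p53 peptide (0.2 μM) was then added for 45 min. Polarisation was read at 485/520 nm and IC50 derived from dose-response curves.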

AGS [5] = assay: 72-h MTT cytotoxicity assay, AGS; format: cell-based; conditions: Homo sapiens, 72-h MTT, Table 1, read-out: IC50 Anti-proliferative effect on cell line AGS
Procedure: The fluorescence polarisation competitive HDM2 binding assay described in Example 3 was used. Furthermore, the anti-proliferative potency of the compounds against three human tumour cell lines with different genetic make-up was also determined. […] The cell lines used were as follows: AGS, gastric adenocarcinoma, wild-type p53; H1299, large cell lung carcinoma, p53 null, low HDM2; SJSA-1, primitive multipotential bone sarcoma, wild-type p53, overexpressed HDM2.
as §1

[6] = Homo sapiens, Table 6, read-out: IC50, agent alone
[7] = Table 5, read-out: IC50, agent alone

T1 sequence (Q00987 whole entry): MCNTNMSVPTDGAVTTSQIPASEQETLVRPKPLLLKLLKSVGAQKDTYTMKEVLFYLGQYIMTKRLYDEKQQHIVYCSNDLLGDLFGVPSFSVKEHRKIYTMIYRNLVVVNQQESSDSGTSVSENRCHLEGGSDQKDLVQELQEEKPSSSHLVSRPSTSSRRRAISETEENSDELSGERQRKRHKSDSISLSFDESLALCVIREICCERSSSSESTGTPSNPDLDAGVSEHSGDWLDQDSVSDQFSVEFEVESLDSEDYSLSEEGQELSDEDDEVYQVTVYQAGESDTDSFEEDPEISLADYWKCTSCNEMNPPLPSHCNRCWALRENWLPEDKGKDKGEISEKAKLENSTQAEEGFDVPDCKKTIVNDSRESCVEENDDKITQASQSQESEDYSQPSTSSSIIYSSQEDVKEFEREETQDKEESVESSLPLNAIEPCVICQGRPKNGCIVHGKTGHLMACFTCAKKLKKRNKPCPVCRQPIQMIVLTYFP

TFSDLW (UniProt P04637 18-23, looked up, fragment) [p53(18-23)]
affinity for HDM2 / inhibition of the p53/HDM2 complex (HDM2 [1]): little affinity

CC[C@H](CO)Nc1nc(NCc2ccccc2)c2ncn(C(C)C)c2n1 [Roscovitine, reference compound]
IC50 (carcinoma cell lines): 11.2 ± 3 µM

COc1cc([C@@H]2c3cc4c(cc3[C@@H](O[C@@H]3O[C@@H]5CO[C@@H](C)O[C@H]5[C@H](O)[C@H]3O)[C@H]3COC(=O)[C@H]23)OCO4)cc(OC)c1O [Etoposide, reference compound]
IC50 (H1299; Homo sapiens, NCI-H1299, MTT, Table 6, read-out: IC50, agent alone): 1300 nM | IC50 (AGS [2]; [6]): 280 nM | IC50 (SJSA-1; [6]): 16 µM

N.N.[Cl][Pt][Cl] [Cisplatin, reference compound]
cell cycle arrest (MCF7 or H1299 cells): no detectable arrest at any phase of the cell cycle | sub-G1 cells, indicative of apoptosis (MCF7 or H1299 cells): induced sub-G1 cells | IC50 (H1299; MTT, Table 5, read-out: IC50, agent alone): 2900 nM | p53 level and p53 phosphorylation at serine 15 ([3]; compound 2: AGS, H1299, MCF7 or SJSA1 cells, etoposide or cisplatinum: AGS or MCF7 cells): inducing p53 phosphorylation of serine 15, as well as increasing the p53 and E2F-1 protein levels | IC50 (AGS [2]; [7]): 3800 nM | IC50 (SJSA-1; [7]): 6.1 µM

MPRFMDYWEGLN
affinity for HDM2 / inhibition of the p53/HDM2 complex (HDM2 [1]): sub-micromolar affinity | fold more potent than the corresponding wild-type p53-derived peptide (HDM2 [1]; versus 16QETFSDLWKLLF27): 28 fold

FMDYWEGL
affinity for HDM2 / inhibition of the p53/HDM2 complex (HDM2 [1]): micromolar affinity

O=S(=O)(NCc1ccc(C(F)(F)F)cc1)c1cc(Br)c(Cl)s1 [negative control compound, 4-bromo-5-chloro-thiophene-2-sulfonic acid 4-trifluoromethyl-benzylamide, reference compound]
inhibition of the HDM2-p53 interaction in vitro (HDM2 [4]): does not inhibit | changes in protein levels and cell morphology [3]: did not induce any notable changes in the protein levels tested or cell morphology

O=C(O)COc1ccc(C(=O)C=Cc2ccc(Cl)c(Cl)c2)cc1 [Compound B-1, {4-[3-(3,4-dichloro-phenyl)-acryloyl]-phenoxy}-acetic acid]
affinity for HDM2 / inhibition of the p53/HDM2 complex (HDM2 [1]): high micromolar affinity

O=[N+]([O-])c1ccc(S(=O)(=O)Nc2ccc(Cl)cc2)s1 [Compound 68, 5-Nitro-thiophene-2-sulfonic acid (4-chloro-phenyl)-amide]
IC50 (HDM2 [4]; text of Example 10, refer Table 1, read-out: competitive inhibition IC50): 431 µM | changes in protein levels and cell morphology [3]: Little change in protein levels | IC50 (AGS [5]): 76 µM

chlorofusin
affinity for HDM2 / inhibition of the p53/HDM2 complex (HDM2 [1]): micromolar inhibitor
